# Measurements published in EPA's ToxValDB 9.5.
# Values joined by “and” are separate entries in the source; they are usually repeats but may differ in a detail not shown here. Identical values can stand only once.
# Test system: Rattus norvegicus
# Conditions: for LD50: acute
# [1] = subchronic, duration: 90 days, oral, gavage, M/F, hematological
# [2] = subchronic, duration: 90 days, oral, diet, M/F, Sprague-Dawley, histopathology: nonneoplastic
# [3] = subchronic, duration: 90 days, oral, diet, M/F, no effects
# [4] = subchronic, duration: 13 weeks, oral, diet, M/F, Wistar, hematological
# [5] = subchronic, duration: 90 days, oral, diet, M/F, Wistar, hematological
structure (smiles),measurement,setting,value
CCOC(=O)CNC(=O)[C@@H]1C[C@H](C)CC[C@H]1C(C)C,NOAEL,[1],75 mg/kg-day
CC(C)[C@@H]1CC[C@@H](C)C[C@H]1C(=O)NCCc1ccccn1 (relative stereo),NOAEL,[2],5 mg/kg-day
"O=c1[nH]sc2ccccc12 [1,2-Benzisothiazolin-3-one]",NOAEL,"subchronic, duration: 90 days, oral, gavage, M/F, Wistar, histopathology: nonneoplastic",10 mg/kg-day
"CCC(S)S [1,?1-?Propanedithiol]",NOAEL,"subchronic, duration: 90 days, oral, diet, M/F, Sprague-Dawley, no effects",0.705 mg/kg-day (2×) and 0.703 mg/kg-day (2×)
CC(=O)c1ccccn1 [1-(2-Pyridyl)-1-ethanone],NOAEL,[1],37 mg/kg-day
CC(=O)c1ccc(C)[nH]1 [1-(5-Methyl-1H-pyrrol-2-yl)ethan-1-one],NOAEL,"subchronic, duration: 90 days, oral, gavage, M, hematological",48 mg/kg-day
CC(=O)c1ccc2ccccc2c1 [2'-Acetonaphthone],NOAEL,"subchronic, duration: 90 days",33 mg/kg-day
same,NOAEL,[3],33 mg/kg-day
C[C@@H]1O[C@@H](O[C@H]2[C@H](O[C@@H]([C@H](O)[C@@H](O)C=O)[C@H](O)CO)O[C@H](CO)[C@H](O)[C@@H]2O)[C@@H](O)[C@H](O)[C@@H]1O [2'-Fucosyllactose],NOAEL,"subchronic, duration: 90 days, oral, gavage, M/F, Wistar, organ weight",2000 mg/kg-day
"CC1CCCCC1NC(=O)c1c(F)c(F)c(F)c(F)c1F (configuration not stated) [2,3,4,5,6-Pentafluoro-N-(2-methylcyclohexyl)benzamide]",NOAEL,"subchronic, duration: 90 days, oral, diet, M/F, Wistar, clinical signs",55 mg/kg-day
"CC(C)CC1NC(CC(C)C)SC(CC(C)C)S1 (configuration not stated) [2,4,6-Triisobutyl-5,6-dihydro-4H-1,3,5-dithiazine]",NOAEL,"subchronic, duration: 90 days, oral, diet, M, histopathology: nonneoplastic",9.3 mg/kg-day
NS(=O)(=O)c1ccccc1C(F)(F)F [2-(Trifluoromethyl)benzenesulfonamide],NOAEL,"short-term, duration: 28 days, organ weight",15 mg/kg-day
O=Cc1cc2ccccc2o1 [2-Benzofurancarboxaldehyde],NOEL,"subchronic, duration: 90 days, oral, diet",25 mg/kg-day
SCc1ccco1 [2-Furylmethanethiol],NOAEL,"subchronic, duration: 90 days, oral, gavage, M/F, body weight",3 mg/kg-day
CCCCCC(C)=O [2-Heptanone],NOAEL,"subchronic, duration: 13 weeks, oral, gavage, M/F, organ weight",20 mg/kg-day
"CC(=O)SC1=C(C)OCC1 [2-Methyl-3-thioacetoxy-4,5-dihydrofuran]",NOAEL,[4],1.4 mg/kg-day
same,NOEL,[5],1.4 mg/kg-day
CC(C=O)=Cc1ccccc1 [2-Methylcinnamic aldehyde],NOAEL,[3],220 mg/kg-day
CCCCCCCCCC(C)=O [2-Undecanone],NOAEL,"subchronic, duration: 90 days, oral, clinical signs",50 mg/kg-day
"CC1=C(S)CCO1 [2-methyl-4,5-dihydrofuran-3-thiol]",NOAEL,[4],1.4 mg/kg-day
same,NOEL,[5],1.4 mg/kg-day
"CCC1=C(O)C(=O)C(C)O1 (configuration not stated) [3(2H)-Furanone, 5-ethyl-4-hydroxy-2-methyl-]",NOAEL,"chronic, duration: 2 years, M/F, body weight",200 mg/kg-day
Cc1ccc(C(C)CC=O)o1 (configuration not stated) [3-(5-Methyl-2-furyl)butanal],NOAEL,"subchronic, duration: 90 days, oral, diet, M/F, Crj:CD, clinical signs",5.9 mg/kg-day
Cn1cc(C(F)(F)F)cc(Cl)c1=O [3-Chloro-1-methyl-5-(trifluoromethyl)pyridin-2-one],LD50,"oral, F, Wistar, mortality",124 mg/kg
CCCCCC/C=C/C(C)=O [3-Decen-2-one],LD50,"oral, mortality",> 5000 mg/kg-day
same,NOAEL,"developmental, development",≥ 1000 mg/kg-day
"Cc1sc2nc(=O)[nH]c(N)c2c1C [4-Amino-5,6-dimethylthieno(2,3-d)pyrimidin-2(1H)-one]",NOAEL,"subchronic, duration: 13 weeks, oral, diet, M/F, Sprague-Dawley, no effects",60 mg/kg-day
COc1cc(C=O)ccc1O [4-Hydroxy-3-methoxybenzaldehyde],NOAEL,"chronic, duration: 2 years",1000 mg/kg-day
same,NOAEL,"subchronic, duration: 13 weeks, oral, gavage, no effects",400 mg/kg-day
CC1=C(O)C(=O)CO1 [4-Hydroxy-5-methyl-3-furanone],NOAEL,"chronic, duration: 2 years, oral, diet, M/F, Sprague-Dawley, body weight",200 mg/kg-day
CC(C)(C)C1CCC(O)CC1 (configuration not stated) [4-tert-Butylcyclohexanol],NOAEL,"reproduction developmental, clinical signs",31.5 mg/kg-day
same,NOAEL,"short-term, duration: 28 days, clinical signs",30 mg/kg-day
Cc1ccc2oc(=O)ccc2c1 [6-Methyl coumarin],NOEL,"subchronic, duration: 13 weeks",150 mg/kg-day
C=CCc1ccc(OC(C)=O)c(OC)c1 [(2-Methoxy-4-prop-2-enylphenyl) acetate],NOAEL,"subchronic, duration: 90 days, clinical chemistry",300 mg/kg-day
C=C1CC[C@H]2O[C@]2(C)CC[C@@H]2[C@@H]1CC2(C)C [(-)Carophyllene oxide],NOAEL,[2],109 mg/kg-day
C=C(C)[C@@H]1CC=C(C)CC1 [(S)-Limonene],NOAEL,"chronic, duration: 103 weeks, oral, gavage, F, mortality",215 mg/kg-day
CC(=O)N[C@@H]([C@@H](O)[C@H](O)[C@H](O)CO)[C@@H](O)CC(=O)C(=O)O [Aceneuramic acid],NOAEL,"subchronic, duration: 13 weeks, oral, diet, M/F, Crj:CD, food consumption",493 mg/kg-day
